Experimental data as given in ChEMBL document CHEMBL4219088, “Novel 4-aminoquinazoline derivatives induce growth inhibition, cell cycle arrest and apoptosis via PI3Kα inhibition” (Bioorg Med Chem, 2018).
Active and inactive are the calls of the source. The rule behind the calls is not given here.

Columns and labels:
HCT-116 [1] = experiment: Cell cycle arrest in human HCT116 cells assessed as accumulation at G0/G1 phase at 2 uM after 24 hrs by propidium iodide staining based flow cytometry (reference value: 44.01%); type: functional
HCT-116 [2] = experiment: Cell cycle arrest in human HCT116 cells assessed as accumulation at G0/G1 phase at 1 uM after 24 hrs by propidium iodide staining based flow cytometry (reference value: 44.01%); type: functional
HCT-116 [3] = experiment: Cell cycle arrest in human HCT116 cells assessed as accumulation at S phase at 1 uM after 24 hrs by propidium iodide staining based flow cytometry (reference value: 11.36%); type: functional
HCT-116 [4] = experiment: Cell cycle arrest in human HCT116 cells assessed as accumulation at S phase at 0.5 uM after 24 hrs by propidium iodide staining based flow cytometry (reference value: 11.36%); type: functional
[5] = target: Phosphatidylinositol 4,5-bisphosphate 3-kinase catalytic subunit alpha isoform (Homo sapiens) (UniProt P42336); experiment: Inhibition of PI3Kalpha in human HCT116 cells assessed as reduction in Akt phosphorylation at Ser473 residues after 24 hrs by Western blot analysis; type: cell-based
Sequence of Phosphatidylinositol 4,5-bisphosphate 3-kinase catalytic subunit alpha isoform (Homo sapiens) (P42336 whole entry, canonical isoform): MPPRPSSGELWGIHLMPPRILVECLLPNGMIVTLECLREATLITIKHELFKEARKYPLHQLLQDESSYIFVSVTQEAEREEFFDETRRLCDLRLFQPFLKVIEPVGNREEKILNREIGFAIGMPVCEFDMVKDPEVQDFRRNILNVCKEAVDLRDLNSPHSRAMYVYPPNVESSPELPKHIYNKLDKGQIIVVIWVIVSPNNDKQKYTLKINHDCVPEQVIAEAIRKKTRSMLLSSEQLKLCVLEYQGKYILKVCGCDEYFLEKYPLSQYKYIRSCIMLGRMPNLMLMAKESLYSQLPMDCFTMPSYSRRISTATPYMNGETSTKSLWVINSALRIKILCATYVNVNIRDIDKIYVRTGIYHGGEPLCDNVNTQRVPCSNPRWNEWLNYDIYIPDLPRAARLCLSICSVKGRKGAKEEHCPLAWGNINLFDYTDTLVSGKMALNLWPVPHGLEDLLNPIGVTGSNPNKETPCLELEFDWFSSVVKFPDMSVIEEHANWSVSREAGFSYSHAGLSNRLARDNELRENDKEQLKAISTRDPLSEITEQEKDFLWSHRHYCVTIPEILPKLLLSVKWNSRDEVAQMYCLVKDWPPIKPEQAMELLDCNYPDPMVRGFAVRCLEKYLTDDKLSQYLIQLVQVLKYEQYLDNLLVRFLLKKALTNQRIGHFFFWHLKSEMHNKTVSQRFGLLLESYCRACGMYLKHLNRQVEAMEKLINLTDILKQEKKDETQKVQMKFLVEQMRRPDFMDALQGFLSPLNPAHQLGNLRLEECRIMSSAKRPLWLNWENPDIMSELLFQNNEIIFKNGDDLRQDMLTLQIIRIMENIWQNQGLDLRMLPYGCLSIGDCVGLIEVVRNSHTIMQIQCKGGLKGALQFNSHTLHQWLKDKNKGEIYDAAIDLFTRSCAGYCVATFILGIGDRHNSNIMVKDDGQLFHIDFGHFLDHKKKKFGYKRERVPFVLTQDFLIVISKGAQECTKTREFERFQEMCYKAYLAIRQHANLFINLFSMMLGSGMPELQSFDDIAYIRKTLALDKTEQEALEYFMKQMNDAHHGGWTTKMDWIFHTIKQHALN

HCT-116 [6] = experiment: Cell cycle arrest in human HCT116 cells assessed as accumulation at subG1 phase at 1 uM after 24 hrs by propidium iodide staining based flow cytometry (reference value: 2.25%); type: functional
HCT-116 [7] = experiment: Induction of apoptosis in human HCT116 cells assessed as necrotic cells at 1 uM after 48 hrs by Annexin V-FITC/propidium iodide staining based flow cytometry (reference value: 0.79%); type: functional
HCT-116 [8] = experiment: Induction of apoptosis in human HCT116 cells assessed as late apoptotic cells at 2 uM after 48 hrs by Annexin V-FITC/propidium iodide staining based flow cytometry (reference value: 1.43%); type: functional
HCT-116 [9] = experiment: Induction of apoptosis in human HCT116 cells assessed as early apoptotic cells at 4 uM after 48 hrs by Annexin V-FITC/propidium iodide staining based flow cytometry (reference value: 3.72%); type: functional
HCT-116 [10] = experiment: Downregulation of CDK2 protein expression in human HCT116 cells at 0.5 to 2 uM after 24 hrs by Western blot analysis; type: functional, cell-based
SK-HEP1 = experiment: Antiproliferative activity against human SKHEP1 cells after 72 hrs by sulforhodamine B assay; type: functional, cell-based; details: SK-HEP1, 72 h
HCT-116 [11] = experiment: Induction of apoptosis in human HCT116 cells assessed as early apoptotic cells at 2 uM after 48 hrs by Annexin V-FITC/propidium iodide staining based flow cytometry (reference value: 3.72%); type: functional
HCT-116 [12] = experiment: Cell cycle arrest in human HCT116 cells assessed as accumulation at G2/M phase at 1 uM after 24 hrs by propidium iodide staining based flow cytometry (reference value: 22.24%); type: functional
HCT-116 [13] = experiment: Cell cycle arrest in human HCT116 cells assessed as accumulation at G2/M phase at 2 uM after 24 hrs by propidium iodide staining based flow cytometry (reference value: 22.24%); type: functional
HCT-116 [14] = experiment: Induction of apoptosis in human HCT116 cells assessed as necrotic cells at 2 uM after 48 hrs by Annexin V-FITC/propidium iodide staining based flow cytometry (reference value: 0.79%); type: functional
[15] = target: Phosphatidylinositol 4,5-bisphosphate 3-kinase catalytic subunit alpha isoform (Homo sapiens) (UniProt P42336); experiment: Inhibition of PI3Kalpha in human HCT116 cells assessed as reduction in Akt phosphorylation at Ser473 residues at 0.5 to 2 uM after 24 hrs by Western blot analysis; type: cell-based
[16] = target: PI3-kinase p110-delta/p85-alpha (Homo sapiens, UniProt O00329); experiment: Inhibition of recombinant N-terminal full length human PI3K p110delta/recombinant untagged full length human p85alpha expressed in baculovirus infected Sf21 insect cells by ELISA
Sequence of PI3-kinase p110-delta/p85-alpha (P27986 whole entry): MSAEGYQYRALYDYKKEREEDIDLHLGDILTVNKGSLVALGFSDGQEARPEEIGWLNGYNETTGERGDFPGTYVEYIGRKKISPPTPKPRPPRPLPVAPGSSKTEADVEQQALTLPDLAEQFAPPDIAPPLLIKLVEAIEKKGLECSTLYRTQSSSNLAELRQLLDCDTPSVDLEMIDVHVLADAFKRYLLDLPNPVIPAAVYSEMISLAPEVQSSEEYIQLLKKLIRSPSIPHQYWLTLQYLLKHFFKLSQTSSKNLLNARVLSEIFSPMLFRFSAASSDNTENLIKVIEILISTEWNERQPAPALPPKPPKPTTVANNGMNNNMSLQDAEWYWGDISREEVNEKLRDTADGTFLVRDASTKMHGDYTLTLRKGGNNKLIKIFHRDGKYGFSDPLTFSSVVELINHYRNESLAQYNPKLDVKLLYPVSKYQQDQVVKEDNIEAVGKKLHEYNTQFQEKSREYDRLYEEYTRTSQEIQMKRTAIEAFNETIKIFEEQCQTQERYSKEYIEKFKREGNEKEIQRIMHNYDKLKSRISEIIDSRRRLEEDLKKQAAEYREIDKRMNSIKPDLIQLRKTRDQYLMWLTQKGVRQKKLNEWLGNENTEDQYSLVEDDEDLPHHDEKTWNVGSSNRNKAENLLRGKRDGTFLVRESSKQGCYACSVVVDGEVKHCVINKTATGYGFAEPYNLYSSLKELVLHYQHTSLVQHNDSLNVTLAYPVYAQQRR
Sequence of PI3-kinase p110-delta/p85-alpha (O00329 whole entry): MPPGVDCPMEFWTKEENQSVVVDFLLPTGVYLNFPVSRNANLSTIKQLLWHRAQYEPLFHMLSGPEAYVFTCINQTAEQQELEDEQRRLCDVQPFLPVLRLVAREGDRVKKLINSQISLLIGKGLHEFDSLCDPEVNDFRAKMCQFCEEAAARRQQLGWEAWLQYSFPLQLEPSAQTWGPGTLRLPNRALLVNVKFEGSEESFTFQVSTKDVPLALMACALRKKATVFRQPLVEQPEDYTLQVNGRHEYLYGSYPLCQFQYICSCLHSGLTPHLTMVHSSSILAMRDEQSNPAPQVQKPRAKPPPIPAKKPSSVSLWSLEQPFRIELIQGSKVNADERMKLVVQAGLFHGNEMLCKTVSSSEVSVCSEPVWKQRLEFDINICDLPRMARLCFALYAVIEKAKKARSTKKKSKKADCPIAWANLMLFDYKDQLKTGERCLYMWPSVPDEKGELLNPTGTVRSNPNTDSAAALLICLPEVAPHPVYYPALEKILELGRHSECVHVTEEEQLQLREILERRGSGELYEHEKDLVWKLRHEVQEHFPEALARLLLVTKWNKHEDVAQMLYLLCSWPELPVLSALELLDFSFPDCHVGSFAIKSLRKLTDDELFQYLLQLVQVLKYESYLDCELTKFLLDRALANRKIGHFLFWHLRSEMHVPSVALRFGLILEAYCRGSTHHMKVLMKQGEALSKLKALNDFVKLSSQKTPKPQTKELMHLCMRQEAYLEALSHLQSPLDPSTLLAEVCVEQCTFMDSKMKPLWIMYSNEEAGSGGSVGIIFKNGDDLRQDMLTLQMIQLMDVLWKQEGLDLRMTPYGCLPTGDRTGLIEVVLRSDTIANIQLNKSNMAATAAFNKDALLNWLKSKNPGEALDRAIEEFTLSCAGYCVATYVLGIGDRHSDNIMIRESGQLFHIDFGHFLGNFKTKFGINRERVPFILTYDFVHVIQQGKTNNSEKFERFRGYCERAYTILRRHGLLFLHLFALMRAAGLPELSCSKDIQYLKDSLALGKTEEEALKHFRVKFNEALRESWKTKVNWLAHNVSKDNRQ

HCT-116 [17] = experiment: Induction of apoptosis in human HCT116 cells assessed as increase in cleaved caspase 9 level at 4 uM after 48 hrs by Western blot analysis; type: functional, cell-based
[18] = target: Phosphatidylinositol 4,5-bisphosphate 3-kinase catalytic subunit alpha isoform (Homo sapiens) (UniProt P42336); experiment: Inhibition of PI3Kalpha in human HCT116 cells assessed as reduction in Akt expression level at Ser473 residues at 1 uM after 8 hrs by DAPI staining based confocal microscopy; type: cell-based
HCT-116 [19] = experiment: Induction of apoptosis in human HCT116 cells assessed as increase in cleaved PARP level at 4 uM after 48 hrs by Western blot analysis; type: functional, cell-based
HCT-116 [20] = experiment: Cell cycle arrest in human HCT116 cells assessed as accumulation at G2/M phase at 0.5 uM after 24 hrs by propidium iodide staining based flow cytometry (reference value: 22.24%); type: functional
A549 = experiment: Antiproliferative activity against human A549 cells after 72 hrs by sulforhodamine B assay; type: functional, cell-based; details: A549, 72 h
HCT-116 [21] = experiment: Upregulation of p27 protein expression in human HCT116 cells at 0.5 to 2 uM after 24 hrs by Western blot analysis; type: functional, cell-based
MCF7 = experiment: Antiproliferative activity against human MCF7 cells after 72 hrs by sulforhodamine B assay; type: functional, cell-based; details: MCF7, 72 h
HCT-116 [22] = experiment: Induction of apoptosis in human HCT116 cells assessed as decrease in Bcl-2 level at 1 to 4 uM after 48 hrs by Western blot analysis; type: functional, cell-based
[23] = target: Phosphatidylinositol 4,5-bisphosphate 3-kinase catalytic subunit gamma isoform (Homo sapiens, UniProt P48736); experiment: Inhibition of recombinant human N-terminal His6-tagged full length PI3K p120gamma expressed in baculovirus infected Sf21 insect cells by ELISA
Sequence of Phosphatidylinositol 4,5-bisphosphate 3-kinase catalytic subunit gamma isoform (P48736 whole entry, canonical isoform): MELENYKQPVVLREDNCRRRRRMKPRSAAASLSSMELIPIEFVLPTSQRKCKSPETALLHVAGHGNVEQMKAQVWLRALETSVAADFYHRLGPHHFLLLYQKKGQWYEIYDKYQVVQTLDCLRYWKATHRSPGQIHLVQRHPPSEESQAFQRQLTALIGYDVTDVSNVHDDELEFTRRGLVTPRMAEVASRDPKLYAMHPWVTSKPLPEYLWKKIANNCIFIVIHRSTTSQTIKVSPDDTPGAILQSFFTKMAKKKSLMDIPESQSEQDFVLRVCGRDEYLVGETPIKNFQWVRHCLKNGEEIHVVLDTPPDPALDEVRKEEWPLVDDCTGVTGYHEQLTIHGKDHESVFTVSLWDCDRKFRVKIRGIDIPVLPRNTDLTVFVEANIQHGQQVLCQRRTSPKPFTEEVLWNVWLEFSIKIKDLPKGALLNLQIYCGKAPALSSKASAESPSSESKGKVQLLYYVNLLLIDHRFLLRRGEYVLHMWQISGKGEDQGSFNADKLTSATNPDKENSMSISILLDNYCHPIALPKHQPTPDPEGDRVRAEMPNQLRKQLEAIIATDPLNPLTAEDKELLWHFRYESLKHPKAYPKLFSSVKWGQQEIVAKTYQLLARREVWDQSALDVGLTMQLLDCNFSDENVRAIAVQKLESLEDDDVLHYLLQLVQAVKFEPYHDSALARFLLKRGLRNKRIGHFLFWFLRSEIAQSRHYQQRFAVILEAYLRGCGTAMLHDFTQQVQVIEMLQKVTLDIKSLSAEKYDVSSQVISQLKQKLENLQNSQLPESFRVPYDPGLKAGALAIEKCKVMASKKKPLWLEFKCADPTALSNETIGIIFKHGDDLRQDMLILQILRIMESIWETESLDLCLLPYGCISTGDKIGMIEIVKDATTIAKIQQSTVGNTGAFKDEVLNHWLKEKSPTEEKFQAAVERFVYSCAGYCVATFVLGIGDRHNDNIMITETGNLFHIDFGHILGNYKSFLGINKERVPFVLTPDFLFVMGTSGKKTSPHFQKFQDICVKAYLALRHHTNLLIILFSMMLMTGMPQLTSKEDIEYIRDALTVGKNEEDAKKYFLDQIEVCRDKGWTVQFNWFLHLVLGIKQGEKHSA

MDA-MB-231 = experiment: Antiproliferative activity against human MDA-MB-231 cells after 72 hrs by sulforhodamine B assay; type: functional, cell-based; details: MDA-MB-231, 72 h
HCT-116 [24] = experiment: Downregulation of cyclin D1 protein expression in human HCT116 cells at 0.5 to 2 uM after 24 hrs by Western blot analysis; type: functional, cell-based
MRC5 = experiment: Antiproliferative activity against human MRC5 cells after 72 hrs by sulforhodamine B assay; type: cell-based; details: MRC5, 72 h
HCT-116 [25] = experiment: Induction of apoptosis in human HCT116 cells assessed as viable cells at 2 uM after 48 hrs by Annexin V-FITC/propidium iodide staining based flow cytometry (reference value: 94.06%); type: functional; details: HCT-116, 48 h, read-out: Activity
[26] = target: Phosphatidylinositol 4,5-bisphosphate 3-kinase catalytic subunit alpha isoform (Homo sapiens) (UniProt P42336); experiment: Inhibition of PI3Kalpha phosphorylation in human HCT116 cells at 0.5 to 2 uM after 24 hrs by Western blot analysis; type: cell-based
[27] = target: Phosphatidylinositol 4,5-bisphosphate 3-kinase catalytic subunit alpha isoform (Homo sapiens) (UniProt P42336); experiment: Inhibition of PI3Kalpha in human HCT116 cells assessed as reduction in GSK3beta phosphorylation after 24 hrs by Western blot analysis; type: cell-based
HCT-116 [28] = experiment: Induction of apoptosis in human HCT116 cells assessed as viable cells at 1 uM after 48 hrs by Annexin V-FITC/propidium iodide staining based flow cytometry (reference value: 94.06%); type: functional; details: HCT-116, 48 h, read-out: Activity
[29] = target: Phosphatidylinositol 4,5-bisphosphate 3-kinase catalytic subunit alpha isoform (Homo sapiens) (UniProt P42336); experiment: Inhibition of PI3Kalpha in human HCT116 cells assessed as reduction in GSK3beta phosphorylation at 0.5 to 2 uM after 24 hrs by Western blot analysis; type: cell-based
HCT-116 [30] = experiment: Cell cycle arrest in human HCT116 cells assessed as accumulation at subG1 phase at 2 uM after 24 hrs by propidium iodide staining based flow cytometry (reference value: 2.25%); type: functional
HCT-116 [31] = experiment: Cell cycle arrest in human HCT116 cells assessed as accumulation at S phase at 2 uM after 24 hrs by propidium iodide staining based flow cytometry (reference value: 11.36%); type: functional

With `CCCCS(=O)(=O)Nc1cc(-c2ccc3ncnc(NCCN(C)C)c3c2)cnc1OC` the Activity (HCT-116 [1]) was 61.01%, the Activity (HCT-116 [2]) was 54.1% and the Activity (HCT-116 [3]) was 13.02%. For the same molecule, the Activity (HCT-116 [4]) was 10.3%, the inhibition [5] was “Dose-dependent effect” and the Activity (HCT-116 [6]) was 2.91%. It also gave an Activity (HCT-116 [7]) of 1.5%, an Activity (HCT-116 [8]) of 3.7% and an Activity (HCT-116 [9]) of 11.11%. For the same molecule, the Activity (HCT-116 [10]) was “Active”, the IC50 (SK-HEP1) was 0.28 µM and the Activity (HCT-116 [11]) was 10.2%. The Activity (HCT-116 [12]) was 15.33%, the Activity (HCT-116 [13]) was 10.99% and the Activity (HCT-116 [14]) was 1.39%. The inhibition [15] was “Active”, the IC50 [16] was 0.102 µM and the Activity (HCT-116 [17]) was “Active”. For the same molecule, the inhibition [18] was “Active”, the Activity (HCT-116 [19]) was “Active” and the Activity (HCT-116 [20]) was 20.53%. The IC50 (A549) was 1.32 µM, the Activity (HCT-116 [21]) was “Active” and the IC50 (MCF7) was 3.24 µM. The Activity (HCT-116 [22]) was “Active”, the IC50 [23] was 0.117 µM and the IC50 (MDA-MB-231) was 0.28 µM. For the same molecule, the Activity (HCT-116 [24]) was “Active”, the IC50 (MRC5) was 18.5 µM and the viability at 2 µM (HCT-116 [25]) was 84.7%. The inhibition [26] was “Active”, the inhibition [27] was “Dose-dependent effect” and the viability at 1 µM (HCT-116 [28]) was 85.5%. For the same molecule, the inhibition [29] was “Active”, the Activity (HCT-116 [30]) was 2.51% and the Activity (HCT-116 [31]) was 13.65%.
